Measurements as given in US11254668B2, “Pyrazolo[1,5-A]pyrazin-4-yl and related derivatives” (Pfizer Inc., priority 2017, dated 2022).
Like-named read-outs stand apart in the source and are kept apart here.

Experiments:
Format in all cases: biochemical
[1] = target: JAK2 (Homo sapiens (Human), UniProt O60674); experiment: JAK Caliper Enzyme Assay at 1 mM ATP, JAK2
Outline: (§1)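 First, compound was incubated at room temperature with recombinant human kinase domain, a synthetic peptide and 1 mM ATP until 20–30% of peptide was phosphorylated. Next, EDTA stopped the reaction. Finally, electrophoretic separation quantified product, and percent effect relative to controls was plotted against concentration.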

[2] = target: TYK2 (Homo sapiens (Human), UniProt P29597); experiment: JAK Caliper Enzyme Assay at 1 mM ATP, TYK2
TYK2, sequence (P29597 897-1176): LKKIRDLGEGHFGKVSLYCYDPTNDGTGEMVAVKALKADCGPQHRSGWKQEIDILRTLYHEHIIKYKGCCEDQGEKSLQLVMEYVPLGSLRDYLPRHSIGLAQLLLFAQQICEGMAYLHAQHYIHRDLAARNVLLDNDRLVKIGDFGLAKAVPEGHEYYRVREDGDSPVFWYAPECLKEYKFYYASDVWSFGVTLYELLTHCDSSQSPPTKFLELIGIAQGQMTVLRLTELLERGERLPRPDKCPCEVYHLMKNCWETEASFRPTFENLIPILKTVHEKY
Outline: as §1

[3] = target: JAK1 (Homo sapiens (Human), UniProt P23458); experiment: JAK Caliper Enzyme Assay at 1 mM ATP, JAK1
JAK1, sequence (P23458 875-1153): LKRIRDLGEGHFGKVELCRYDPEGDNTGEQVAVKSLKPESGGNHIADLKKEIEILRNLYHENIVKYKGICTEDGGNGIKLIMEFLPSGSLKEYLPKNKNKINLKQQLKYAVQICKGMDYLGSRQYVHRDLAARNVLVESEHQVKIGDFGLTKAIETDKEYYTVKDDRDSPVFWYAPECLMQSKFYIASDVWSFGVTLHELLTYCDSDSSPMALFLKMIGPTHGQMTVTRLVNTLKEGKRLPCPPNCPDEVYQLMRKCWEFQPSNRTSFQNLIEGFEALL
Outline: (§2)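 Recombinant human kinase domains phosphorylate a fluorescent synthetic peptide at 1 mM ATP, room temperature, with enzyme and time tuned for 20-30% conversion; EDTA-stopped. Product/substrate separated by microfluidic mobility shift; percent effect versus DMSO and positive controls fitted to IC50 (nM).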

[4] = target: JAK3 (Homo sapiens (Human), UniProt P52333); experiment: JAK Caliper Enzyme Assay at 1 mM ATP, JAK3
JAK3, sequence (P52333 822-1111): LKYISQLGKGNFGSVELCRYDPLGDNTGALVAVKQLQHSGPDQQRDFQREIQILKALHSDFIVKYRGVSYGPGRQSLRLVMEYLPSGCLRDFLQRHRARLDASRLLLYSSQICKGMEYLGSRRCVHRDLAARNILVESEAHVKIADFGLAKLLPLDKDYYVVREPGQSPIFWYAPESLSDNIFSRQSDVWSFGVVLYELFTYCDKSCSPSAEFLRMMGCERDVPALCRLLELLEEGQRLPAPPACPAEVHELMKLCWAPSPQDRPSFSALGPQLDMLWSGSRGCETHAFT
Outline: as §2

JAK2, sequence (O60674 849-1124): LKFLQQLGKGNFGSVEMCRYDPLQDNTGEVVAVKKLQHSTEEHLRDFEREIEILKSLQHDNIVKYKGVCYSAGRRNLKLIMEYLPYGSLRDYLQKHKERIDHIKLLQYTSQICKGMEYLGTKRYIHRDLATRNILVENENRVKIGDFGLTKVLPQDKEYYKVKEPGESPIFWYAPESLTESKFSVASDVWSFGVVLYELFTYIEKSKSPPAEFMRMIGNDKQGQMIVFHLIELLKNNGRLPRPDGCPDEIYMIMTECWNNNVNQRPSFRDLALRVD

SMILES | IC50 [1] | IC50 [2] | IC50 [3] | IC50 [4] | IC50 ([1]; JAK Caliper enzyme assay) | IC50 ([2]; JAK Caliper enzyme assay) | IC50 ([3]; JAK Caliper enzyme assay) | IC50 ([4]; JAK Caliper enzyme assay)
N#CC[C@]1(n2ncc(-c3cc(-c4cc(C(N)=O)c(F)cn4)cc4ncccc34)n2)C[C@@H](C#N)C1 [Example 386, 2-(5-{2-[trans-3-cyano-1-(cyanomethyl)cyclobutyl]-2H-1,2,3-triazol-4-yl}quinolin-7-yl)-5-fluoropyridine-4-carboxamide] | – | – | – | – | > 10000 nM | 3760 nM | > 10000 nM | > 10000 nM
CNC(=O)[C@H]1C[C@](CC#N)(n2ccc(-c3nc(-c4ccn[nH]4)cc4ncccc34)n2)C1 [Example 27, trans-3-(cyanomethyl)-N-methyl-3-{3-[7-(1H-pyrazol-5-yl)-1,6-naphthyridin-5-yl]-1H-pyrazol-1-yl}cyclobutanecarboxamide] | > 10000 nM | 7560 nM | > 10000 nM | > 10000 nM | – | – | – | –
Cc1cncc(-c2cc(-c3cnn([C@]4(CC#N)C[C@@H](C#N)C4)n3)c3cccnc3c2)n1 [Example 403, trans-3-(cyanomethyl)-3-{4-[7-(6-methylpyrazin-2-yl)quinolin-5-yl]-2H-1,2,3-triazol-2-yl}cyclobutanecarbonitrile] | – | – | – | – | > 10000 nM | 7190 nM | > 10000 nM | > 10000 nM
N#CC[C@]1(n2cc(-c3cc(-c4nc(CO)cs4)cc4nccn34)cn2)C[C@@H](C#N)C1 [Example 467, cis-3-(cyanomethyl)-3-(4-{7-[4-(hydroxymethyl)-1,3-thiazol-2-yl]imidazo[1,2-a]pyridin-5-yl}-1H-pyrazol-1-yl)cyclobutanecarbonitrile] | – | – | – | – | 518 nM | 51 nM | 1600 nM | > 10000 nM
COc1ncc(-c2cc3ncccc3c(-c3ccn(C4(CC#N)CN(S(C)(=O)=O)C4)n3)n2)cn1 [Example 237, [3-{3-[7-(2-methoxypyrimidin-5-yl)-1,6-naphthyridin-5-yl]-1H-pyrazol-1-yl}-1-(methylsulfonyl)azetidin-3-yl]acetonitrile] | > 10000 nM | 2040 nM | > 10000 nM | > 10000 nM | – | – | – | –
CS(=O)(=O)N1CC(CC#N)(n2ccc(-c3nc(-c4cc(F)ccc4O)cc4ncccc34)n2)C1 [Example 262, [3-{3-[7-(5-fluoro-2-hydroxyphenyl)-1,6-naphthyridin-5-yl]-1H-pyrazol-1-yl}-1-(methylsulfonyl)azetidin-3-yl]acetonitrile] | > 10000 nM | 242 nM | > 10000 nM | > 10000 nM | – | – | – | –
COc1nc(-c2cc(-c3cnn([C@]4(CC#N)C[C@H](C#N)C4)n3)c3cccnc3c2)cnc1N [Example 407, cis-3-{4-[7-(5-amino-6-methoxypyrazin-2-yl)quinolin-5-yl]-2H-1,2,3-triazol-2-yl}-3-(cyanomethyl)cyclobutanecarbonitrile] | – | – | – | – | 1010 nM | 257 nM | 1200 nM | > 10000 nM
Cn1cc(-c2cc(-c3cnn(C4(CC#N)CN(CC(F)(F)F)C4)c3)n3ncnc3c2)cn1 [Example 475, [3-{4-[7-(1-methyl-1H-pyrazol-4-yl)[1,2,4]triazolo[1,5-a]pyridin-5-yl]-1H-pyrazol-1-yl}-1-(2,2,2-trifluoroethyl)azetidin-3-yl]acetonitrile] | – | – | – | – | 6850 nM | 462 nM | 6670 nM | > 10000 nM
CC(=O)Nc1cccc(-c2cc(-c3cnn(C4(CC#N)CC(C#N)C4)n3)c3cccnc3c2)n1 (stereo not drawn) [Example 377, N-[6-(5-{2-[cis-3-cyano-1-(cyanomethyl)cyclobutyl]-2H-1,2,3-triazol-4-yl}quinolin-7-yl)pyridin-2-yl]acetamide] | – | – | – | – | 33 nM | 14 nM | 73 nM | 1350 nM
N#CCC1(n2ccc(-c3nc(-c4ccn[nH]4)cc4ncccc34)n2)CC(C(N)=O)C1 (stereo not drawn) [Example 25, trans-3-(cyanomethyl)-3-{3-[7-(1H-pyrazol-5-yl)-1,6-naphthyridin-5-yl]-1H-pyrazol-1-yl}cyclobutanecarboxamide] | 8680 nM | 1640 nM | > 10000 nM | > 10000 nM | – | – | – | –
CCN1CC(CC#N)(n2ccc(-c3nc(-c4cc(N)n(C)n4)cc4ncccc34)n2)C1 [Example 64, (3-{3-[7-(5-amino-1-methyl-1H-pyrazol-3-yl)-1,6-naphthyridin-5-yl]-1H-pyrazol-1-yl}-1-ethylazetidin-3-yl)acetonitrile] | 5900 nM | 440 nM | > 10000 nM | > 10000 nM | – | – | – | –

More lines, in order of falling IC50 [1], values ahead:

IC50 [1] | IC50 [2] | IC50 [3] | IC50 [4] | IC50 ([1]; JAK Caliper enzyme assay) | IC50 ([2]; JAK Caliper enzyme assay) | IC50 ([3]; JAK Caliper enzyme assay) | IC50 ([4]; JAK Caliper enzyme assay) | SMILES
1790 nM | 172 nM | 3290 nM | > 10000 nM | – | – | – | – | CS(=O)(=O)N1CC(CC#N)(n2ccc(-c3nc(-c4cnco4)cc4ncccc34)n2)C1 [Example 145, [1-(methylsulfonyl)-3-{3-[7-(1,3-oxazol-5-yl)-1,6-naphthyridin-5-yl]-1H-pyrazol-1-yl}azetidin-3-yl]acetonitrile]
1770 nM | 75 nM | 1960 nM | > 10000 nM | – | – | – | – | CO[C@H]1C[C@](CC#N)(n2ccc(-c3nc(-c4ccn[nH]4)cc4ncccc34)n2)C1 [Example 30, (trans-3-methoxy-1-{3-[7-(1H-pyrazol-5-yl)-1,6-naphthyridin-5-yl]-1H-pyrazol-1-yl}cyclobutyl)acetonitrile]
740 nM | 115 nM | 3700 nM | > 10000 nM | – | – | – | – | Cn1ncc(-c2cc(-c3cnn([C@]4(CC#N)C[C@H](C#N)C4)n3)c3cccnc3c2)c1N [Example 331, cis-3-{4-[7-(5-amino-1-methyl-1H-pyrazol-4-yl)quinolin-5-yl]-2H-1,2,3-triazol-2-yl}-3-(cyanomethyl)cyclobutanecarbonitrile]
562 nM | 38 nM | 2700 nM | > 10000 nM | – | – | – | – | Cc1ccc(-c2cc3ncccc3c(-c3ccn(C4(CC#N)CN(S(C)(=O)=O)C4)n3)n2)c(N)n1 [Example 218, [3-{3-[7-(2-amino-6-methylpyridin-3-yl)-1,6-naphthyridin-5-yl]-1H-pyrazol-1-yl}-1-(methylsulfonyl)azetidin-3-yl]acetonitrile]
464 nM | 44 nM | 1020 nM | > 10000 nM | – | – | – | – | CS(=O)(=O)N1CC(CC#N)(n2ccc(-c3nc(-c4ccn[nH]4)cc4ncccc34)n2)C1 [Example 17, [1-(methylsulfonyl)-3-{3-[7-(1H-pyrazol-5-yl)-1,6-naphthyridin-5-yl]-1H-pyrazol-1-yl}azetidin-3-yl]acetonitrile]
397 nM | 21 nM | 384 nM | > 10000 nM | – | – | – | – | N#CCC1(n2ccc(-c3nc(-c4ccc(O)nc4)cc4ncccc34)n2)CN(CC(F)(F)F)C1 [Example 183, [3-{3-[7-(6-hydroxypyridin-3-yl)-1,6-naphthyridin-5-yl]-1H-pyrazol-1-yl}-1-(2,2,2-trifluoroethyl)azetidin-3-yl]acetonitrile]
354 nM | 40 nM | 1720 nM | > 10000 nM | – | – | – | – | N#CC[C@]1(n2ncc(-c3cc(-c4ccc(N)cn4)cc4ncccc34)n2)C[C@H](C#N)C1 [Example 360, trans-3-{4-[7-(5-aminopyridin-2-yl)quinolin-5-yl]-2H-1,2,3-triazol-2-yl}-3-(cyanomethyl)cyclobutanecarbonitrile]
311 nM | 49 nM | 786 nM | > 10000 nM | – | – | – | – | Cc1cc(-c2nc(-c3cn[nH]c3)cc3ncccc23)nn1[C@]1(CC#N)C[C@@H](C#N)C1 [Example 273, trans-3-(cyanomethyl)-3-{5-methyl-3-[7-(1H-pyrazol-4-yl)-1,6-naphthyridin-5-yl]-1H-pyrazol-1-yl}cyclobutanecarbonitrile]
90 nM | 16 nM | 179 nM | > 10000 nM | – | – | – | – | CS(=O)(=O)N1CC(CC#N)(n2ncc(-c3nc(-c4cc[nH]n4)cc4ncccc34)n2)C1 [Example 281, [1-(methylsulfonyl)-3-{4-[7-(1H-pyrazol-3-yl)-1,6-naphthyridin-5-yl]-2H-1,2,3-triazol-2-yl}azetidin-3-yl]acetonitrile]
82 nM | 29 nM | 976 nM | 8380 nM | – | – | – | – | N#CCC1(n2ccc(-c3nc(-c4cnn(C5COC5)c4)cc4ncccc34)n2)CN(CC(F)(F)F)C1 [Example 119, [3-(3-{7-[1-(oxetan-3-yl)-1H-pyrazol-4-yl]-1,6-naphthyridin-5-yl}-1H-pyrazol-1-yl)-1-(2,2,2-trifluoroethyl)azetidin-3-yl]acetonitrile]
73 nM | 15 nM | 292 nM | > 10000 nM | – | – | – | – | N#CCC1(n2ccc(-c3nc(-c4cc(CO)[nH]n4)cc4ncccc34)n2)CC(C#N)C1 (stereo not drawn) [Example 48, trans-3-(cyanomethyl)-3-(3-{7-[5-(hydroxymethyl)-1H-pyrazol-3-yl]-1,6-naphthyridin-5-yl}-1H-pyrazol-1-yl)cyclobutanecarbonitrile]
50 nM | 9 nM | 71 nM | 6750 nM | – | – | – | – | N#CCC1(n2ccc(-c3nc(-c4ccn[nH]4)cc4ncccc34)n2)CC(C#N)C1 (stereo not drawn) [Example 21, cis-3-(cyanomethyl)-3-{3-[7-(1H-pyrazol-5-yl)-1,6-naphthyridin-5-yl]-1H-pyrazol-1-yl}cyclobutanecarbonitrile]
22 nM | 9 nM | 63 nM | 1850 nM | – | – | – | – | N#CC[C@]1(n2ccc(-c3nc(-c4cn[nH]c4CO)cc4ncccc34)n2)C[C@@H](C#N)C1 [Example 92, cis-3-(cyanomethyl)-3-(3-{7-[5-(hydroxymethyl)-1H-pyrazol-4-yl]-1,6-naphthyridin-5-yl}-1H-pyrazol-1-yl)cyclobutanecarbonitrile]
